The term bioavailability denotes the share of a dose that reaches the circulation, judged against a reference dose that is usually intravenous. A higher bioavailability goes with much systemic uptake. As a reminder, the IC50 is the point on the concentration scale where inhibition reaches its midpoint. A low value points to greater potency in that assay. A word on the logP: it is the decadic logarithm of the partition coefficient of the neutral form, usually between octanol and water. A low value points to a more hydrophilic compound.

Data set [1] has as its target T1, Muscarinic acetylcholine receptor M5 (Homo sapiens) (UniProt P08912).
T1 sequence (whole entry): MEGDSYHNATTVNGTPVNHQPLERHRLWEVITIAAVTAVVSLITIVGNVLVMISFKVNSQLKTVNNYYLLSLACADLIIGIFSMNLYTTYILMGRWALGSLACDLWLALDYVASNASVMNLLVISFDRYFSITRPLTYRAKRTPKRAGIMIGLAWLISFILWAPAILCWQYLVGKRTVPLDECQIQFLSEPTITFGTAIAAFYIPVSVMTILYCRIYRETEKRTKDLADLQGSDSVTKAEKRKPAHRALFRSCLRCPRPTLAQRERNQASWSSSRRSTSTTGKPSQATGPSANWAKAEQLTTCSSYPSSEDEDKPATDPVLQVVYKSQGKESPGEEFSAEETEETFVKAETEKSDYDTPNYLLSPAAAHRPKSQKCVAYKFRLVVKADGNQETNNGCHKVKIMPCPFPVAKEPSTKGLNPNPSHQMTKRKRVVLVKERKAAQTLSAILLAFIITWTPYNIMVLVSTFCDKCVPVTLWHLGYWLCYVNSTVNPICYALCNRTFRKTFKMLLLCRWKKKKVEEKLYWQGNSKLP
Description: Agonist activity at muscarinic M5 receptor (unknown origin) at 10 uM by calcium mobilization assay. It counts as functional. For orientation: A change in cytosolic calcium serves as a functional read-out for many receptors and channels.

The nature of data set [2]: Clearance in rat at 0.25 mg/kg, iv and 2.5 mg/kg, po. The note with it: in vivo. It counts as ADME, organism-based.
In data set [3] the target is T2, Muscarinic acetylcholine receptor M4 (Homo sapiens) (UniProt P08173).
T2 sequence (whole entry): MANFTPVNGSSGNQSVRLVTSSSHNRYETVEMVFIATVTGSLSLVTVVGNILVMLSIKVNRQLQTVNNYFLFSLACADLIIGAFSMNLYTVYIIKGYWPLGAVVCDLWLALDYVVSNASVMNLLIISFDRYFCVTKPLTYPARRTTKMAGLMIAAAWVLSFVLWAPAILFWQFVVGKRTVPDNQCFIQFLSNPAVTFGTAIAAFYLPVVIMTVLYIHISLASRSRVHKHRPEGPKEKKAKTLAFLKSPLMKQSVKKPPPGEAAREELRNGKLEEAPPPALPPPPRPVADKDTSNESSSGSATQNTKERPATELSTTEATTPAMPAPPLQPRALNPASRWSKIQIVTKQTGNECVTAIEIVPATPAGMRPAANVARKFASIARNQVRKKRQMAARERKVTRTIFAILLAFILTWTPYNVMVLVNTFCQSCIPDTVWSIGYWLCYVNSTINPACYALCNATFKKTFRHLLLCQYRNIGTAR
Description: Agonist activity at muscarinic M4 receptor (unknown origin) at 1 uM by calcium mobilization assay. It counts as functional.

Data set [4] deals with T3, Muscarinic acetylcholine receptor M2 (Homo sapiens) (UniProt P08172).
T3 sequence (whole entry): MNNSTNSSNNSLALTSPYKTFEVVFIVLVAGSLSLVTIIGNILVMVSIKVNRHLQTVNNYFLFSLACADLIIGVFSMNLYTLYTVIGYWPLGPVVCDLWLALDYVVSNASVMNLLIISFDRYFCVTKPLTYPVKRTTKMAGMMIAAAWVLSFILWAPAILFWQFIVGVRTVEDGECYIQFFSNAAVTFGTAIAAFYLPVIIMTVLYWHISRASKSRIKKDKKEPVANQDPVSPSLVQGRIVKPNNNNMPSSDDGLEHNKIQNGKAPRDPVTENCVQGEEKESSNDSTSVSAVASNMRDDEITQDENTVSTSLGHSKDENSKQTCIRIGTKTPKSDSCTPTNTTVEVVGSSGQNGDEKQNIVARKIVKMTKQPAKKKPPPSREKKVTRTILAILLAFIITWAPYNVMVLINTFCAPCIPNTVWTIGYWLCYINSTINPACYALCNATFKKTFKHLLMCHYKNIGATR
In words: Agonist activity at muscarinic M2 receptor (unknown origin) at 1 uM by calcium mobilization assay. It is filed as functional.

Data set [5] can be described thus: Oral bioavailability in rat at 2.5 mg/kg. It is filed as ADME, organism-based. The note with it: in vivo.
The target of data set [6] is Muscarinic acetylcholine receptor M3 (Homo sapiens) (UniProt P20309). In words: Agonist activity at muscarinic M3 receptor (unknown origin) at 1 uM by calcium mobilization assay. It counts as functional.
Data set [7] concerns the target T4, Muscarinic acetylcholine receptor M1 (Homo sapiens) (UniProt P11229).
T4 sequence (whole entry): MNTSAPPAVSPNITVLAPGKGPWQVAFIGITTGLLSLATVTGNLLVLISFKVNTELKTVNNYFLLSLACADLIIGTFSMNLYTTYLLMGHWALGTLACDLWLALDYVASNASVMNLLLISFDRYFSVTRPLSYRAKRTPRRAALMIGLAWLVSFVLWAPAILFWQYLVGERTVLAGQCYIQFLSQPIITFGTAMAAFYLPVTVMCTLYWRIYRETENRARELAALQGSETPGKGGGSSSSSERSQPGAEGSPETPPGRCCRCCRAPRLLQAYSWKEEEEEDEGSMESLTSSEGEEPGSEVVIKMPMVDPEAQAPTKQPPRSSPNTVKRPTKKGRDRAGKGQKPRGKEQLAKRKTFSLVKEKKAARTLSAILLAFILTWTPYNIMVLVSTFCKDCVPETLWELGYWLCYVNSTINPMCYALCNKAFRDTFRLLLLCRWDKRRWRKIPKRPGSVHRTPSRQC
Description: Agonist activity at muscarinic M1 receptor (unknown origin) at 1 uM by calcium mobilization assay. It is filed as functional.

Data set [8] deals with Voltage-gated inwardly rectifying potassium channel KCNH2 (Homo sapiens, UniProt Q12809). In words: Inhibition of human ERG channel.
Data set [9] concerns the target T3, Muscarinic acetylcholine receptor M2 (Homo sapiens). Description: Agonist activity at muscarinic M2 receptor (unknown origin) at 0.3 uM by calcium mobilization assay. It is filed as functional.
Data set [10] concerns the target Muscarinic acetylcholine receptor M3 (Homo sapiens) (UniProt P20309). In words: Agonist activity at muscarinic M3 receptor (unknown origin) at 0.3 uM by calcium mobilization assay. It counts as functional.
Data set [11] can be described thus: Lipophilicity, log P of the compound. It counts as physicochemical. The conditions noted are these: octanol/water.
The target in data set [12] is T4, Muscarinic acetylcholine receptor M1 (Homo sapiens). Description: Agonist activity at muscarinic M1 receptor (unknown origin) at 0.3 uM by calcium mobilization assay. It is filed as functional.
The target of data set [13] is T2, Muscarinic acetylcholine receptor M4 (Homo sapiens). In words: Agonist activity at muscarinic M4 receptor (unknown origin) at 0.3 uM by calcium mobilization assay. It counts as functional.

Each structure is given as a SMILES string.

Voltage-gated inwardly rectifying potassium channel KCNH2, sequence (Q12809 whole entry): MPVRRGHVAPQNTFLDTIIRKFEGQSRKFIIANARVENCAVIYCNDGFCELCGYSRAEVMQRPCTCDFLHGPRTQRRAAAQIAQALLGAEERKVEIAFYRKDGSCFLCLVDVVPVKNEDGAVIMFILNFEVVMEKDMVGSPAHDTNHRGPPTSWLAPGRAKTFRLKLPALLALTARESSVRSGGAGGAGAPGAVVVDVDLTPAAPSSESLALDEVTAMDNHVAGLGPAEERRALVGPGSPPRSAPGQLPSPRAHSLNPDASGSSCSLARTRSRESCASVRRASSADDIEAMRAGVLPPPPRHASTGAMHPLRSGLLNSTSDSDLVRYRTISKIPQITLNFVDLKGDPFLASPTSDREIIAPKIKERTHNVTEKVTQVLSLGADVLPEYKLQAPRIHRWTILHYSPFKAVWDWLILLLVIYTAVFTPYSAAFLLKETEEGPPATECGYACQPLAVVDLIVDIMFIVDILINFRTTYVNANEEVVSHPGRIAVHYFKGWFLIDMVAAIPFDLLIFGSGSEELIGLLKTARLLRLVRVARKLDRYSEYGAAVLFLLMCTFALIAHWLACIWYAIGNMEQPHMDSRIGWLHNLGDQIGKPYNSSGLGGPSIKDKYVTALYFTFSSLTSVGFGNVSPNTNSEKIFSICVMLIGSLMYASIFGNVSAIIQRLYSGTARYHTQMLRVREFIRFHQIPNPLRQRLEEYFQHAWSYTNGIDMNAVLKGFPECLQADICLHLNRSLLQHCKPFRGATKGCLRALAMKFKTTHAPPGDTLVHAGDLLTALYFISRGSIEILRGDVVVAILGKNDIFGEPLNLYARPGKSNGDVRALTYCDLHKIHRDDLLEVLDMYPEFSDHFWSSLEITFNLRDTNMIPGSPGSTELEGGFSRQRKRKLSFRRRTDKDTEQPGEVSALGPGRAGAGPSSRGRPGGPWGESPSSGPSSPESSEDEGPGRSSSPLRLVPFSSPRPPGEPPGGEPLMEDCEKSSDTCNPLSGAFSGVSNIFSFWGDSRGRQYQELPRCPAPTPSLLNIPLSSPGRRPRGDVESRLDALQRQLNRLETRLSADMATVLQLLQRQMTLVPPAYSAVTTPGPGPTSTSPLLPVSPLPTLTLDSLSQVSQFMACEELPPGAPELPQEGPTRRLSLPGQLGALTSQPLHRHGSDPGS
Muscarinic acetylcholine receptor M3 (Homo sapiens), sequence (P20309 whole entry, looked up): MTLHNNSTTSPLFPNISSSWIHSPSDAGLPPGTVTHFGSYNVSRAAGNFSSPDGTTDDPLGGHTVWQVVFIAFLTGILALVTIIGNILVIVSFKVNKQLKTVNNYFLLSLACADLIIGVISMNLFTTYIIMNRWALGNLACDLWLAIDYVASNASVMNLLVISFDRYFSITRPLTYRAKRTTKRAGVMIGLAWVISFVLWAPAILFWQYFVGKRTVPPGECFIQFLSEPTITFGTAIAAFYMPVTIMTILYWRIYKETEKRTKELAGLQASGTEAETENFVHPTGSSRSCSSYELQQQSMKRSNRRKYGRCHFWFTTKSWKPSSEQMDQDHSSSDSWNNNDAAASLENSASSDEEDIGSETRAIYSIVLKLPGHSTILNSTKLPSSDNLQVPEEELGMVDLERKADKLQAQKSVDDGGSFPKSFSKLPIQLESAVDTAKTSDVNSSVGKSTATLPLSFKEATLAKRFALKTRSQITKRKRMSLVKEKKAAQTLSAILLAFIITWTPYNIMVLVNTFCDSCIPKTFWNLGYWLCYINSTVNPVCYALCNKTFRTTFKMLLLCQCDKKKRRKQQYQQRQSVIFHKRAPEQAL

Turning to `CCOC(=O)N1CCC(CN2CCC3(CC2)CC(=O)N(CC)c2ncccc23)CC1`, the Activity is 3% in [1]; 134% in data set [3]; 20% in data set [4]; 2% in data set [6]; 91% in data set [7]. In data set [2], this compound yielded a clearance of 49.3 mL/min/kg. In data set [5], this compound gave a bioavailability of 2.6%.
As to `CCOC(=O)N1CCC(CN2CCC3(CC2)CN(C(=O)OC)c2ncccc23)CC1`, the Activity in data set [3] stood at 7%.
For `CCOC(=O)N1CCC(CN2CCC3(CC2)CN(C(=O)NC)c2ncccc23)CC1`, the Activity in data set [1] stood at 17%; in data set [9] it was 7%; in [10], 8%; in [12], 74%; in data set [13], 98%. Moreover, the IC50 in [8] is 300 nM. In data set [11], this compound gave a logP of 2.5.
`CCOC(=O)N1CCC(CN2CCC3(CC2)OC(=O)N(C)c2ncccc23)CC1` yielded a clearance in data set [2] of 71.6 mL/min/kg.
Consider `CCOC(=O)N1CCC(CN2CCC3(CC2)CN(C(=O)N2CCCC2)c2ncccc23)CC1`, for which the Activity in data set [13] worked out at 10%.
For the compound `CCOC(=O)N1CCC(CN2CCC3(CC2)CN(S(C)(=O)=O)c2ncccc23)CC1`, the Activity stood at 3% in data set [1]; 12% in data set [9]; 7% in data set [10]; 20% in data set [12]; 88% in data set [13].
For the compound `CCOC(=O)N1CCC(CN2CCC3(CC2)CN(C(=O)N(CC)CC)c2ncccc23)CC1`, the Activity in [1] was found to be 9%; in data set [3], 132%; in data set [4], 23%; in [6], 4%; in data set [7] it was 52%. In data set [8], this compound returned an IC50 of 2540 nM.
`CCNC(=O)N1CC2(CCN(CC3CCN(C(=O)OCC)CC3)CC2)c2cccnc21`: the Activity in [1] came to 11%; in [3] it was 77%; in [4] it was 13%; in data set [6], 5%; in data set [7], 55%. Moreover, in data set [8], the IC50 turned out to be 230 nM.
In the case of `CCOC(=O)N1CCC(CN2CCC3(CC2)CN(CC)c2ncccc23)CC1`, the Activity in data set [1] came to 17%; in data set [3], 58%; in [4] it was 14%; in data set [6] it was 6%; in data set [7] it was 34%.
Take `CCOC(=O)N1CCC(CN2CCC3(CC2)OC(=O)Nc2ncccc23)CC1`: the clearance in data set [2] was determined as 17.5 mL/min/kg.
With `CCOC(=O)N1CCC(CN2CCC3(CC2)CN(C(N)=O)c2ncccc23)CC1`, the Activity came to 8% in data set [1]; 17% in data set [9]; 11% in data set [10]; 99% in data set [12]; 103% in data set [13]. In data set [11], the logP is 2.
Take `CCOC(=O)N1CCC(CN2CCC3(CC2)CN(C(=O)N2CCC2)c2ncccc23)CC1`: in [13], the Activity was 29%.

The values are drawn from ChEMBL document CHEMBL3351422, “Discovery of N-substituted 7-azaindoline derivatives as potent, orally available M1 and M4 muscarinic acetylcholine receptors selective agonists” (Bioorg Med Chem Lett, 2014).
